Assay results from ChEMBL document CHEMBL1201862, “PubChem BioAssay data set” (2004).
The source made the active and inactive calls. Cut-off read from the data, not from the text of the source, for most assays here: actives have a measured EC50 and inactives only a lower limit.

Legend:
[1] = inhibitors of intracellular T. cruzi replication, confirmation, NIH3T3 host cells, beta-gal luminescence (AID 2044); type: functional, cell-based;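 note: intracellular parasites grown in NIH/3T3 mouse fibroblasts as host cells; luminescent beta-galactosidase reporter signal from transgenic T. cruzi replicating inside host cells; inhibitors lower the luminescence signal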
[2] = cytotoxicity toward NIH3T3 fibroblasts, dose response, counter-screen, cell-based, ATP luminescence, mouse fibroblasts (AID 2010); type: functional;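 note: cells exposed to compound for about 90 hours before reading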
[3] = target: Cytochrome P450 2C9 (Homo sapiens, UniProt P11712)
Chain of Cytochrome P450 2C9 (P11712 whole entry): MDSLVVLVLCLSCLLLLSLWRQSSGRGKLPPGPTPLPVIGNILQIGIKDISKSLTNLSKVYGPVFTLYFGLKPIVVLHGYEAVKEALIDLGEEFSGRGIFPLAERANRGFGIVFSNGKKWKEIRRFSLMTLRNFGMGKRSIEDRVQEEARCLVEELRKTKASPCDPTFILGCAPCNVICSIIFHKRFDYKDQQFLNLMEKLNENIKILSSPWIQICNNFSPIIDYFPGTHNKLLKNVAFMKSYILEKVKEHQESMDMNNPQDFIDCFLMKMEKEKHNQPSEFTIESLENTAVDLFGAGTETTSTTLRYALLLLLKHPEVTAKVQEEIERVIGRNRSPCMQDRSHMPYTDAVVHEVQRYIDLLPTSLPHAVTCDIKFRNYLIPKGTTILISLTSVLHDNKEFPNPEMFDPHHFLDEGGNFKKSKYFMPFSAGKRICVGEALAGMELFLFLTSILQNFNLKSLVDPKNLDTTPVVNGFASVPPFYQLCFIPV

[4] = inhibitors of SNCA 5'UTR-driven reporter translation, confirmation, H4 neuroglioma cells, luminescence (AID 1988); type: functional, cell-based
[5] = Luminescence Cell-Based Dose Response HTS to Identify Inhibitors of 5'UTR Stem-Loop Driven Prion Protein mRNA Translation in H4 Neuroglioblastoma Cells. [Related pubchem assays: 1827 (Project Summary), 1813 (Primary HTS)]; type: functional
[6] = inhibitors of firefly luciferase expression or activity, dose response, H4 neuroglioma cells, luminescence (AID 1990); type: functional, cell-based
[7] = Luminescence Cell-Based Dose Retest to Confirm Inhibitors of Cancer Stem Cells. [Related pubchem assays (depositor defined):AID2717, AID2721]; type: functional; details: Homo sapiens
[8] = target: Cytochrome P450 3A4 (Homo sapiens, UniProt P08684);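 note: CYP3A4 tested as one member of a cytochrome P450 panel screen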
Chain of Cytochrome P450 3A4 (P08684 whole entry): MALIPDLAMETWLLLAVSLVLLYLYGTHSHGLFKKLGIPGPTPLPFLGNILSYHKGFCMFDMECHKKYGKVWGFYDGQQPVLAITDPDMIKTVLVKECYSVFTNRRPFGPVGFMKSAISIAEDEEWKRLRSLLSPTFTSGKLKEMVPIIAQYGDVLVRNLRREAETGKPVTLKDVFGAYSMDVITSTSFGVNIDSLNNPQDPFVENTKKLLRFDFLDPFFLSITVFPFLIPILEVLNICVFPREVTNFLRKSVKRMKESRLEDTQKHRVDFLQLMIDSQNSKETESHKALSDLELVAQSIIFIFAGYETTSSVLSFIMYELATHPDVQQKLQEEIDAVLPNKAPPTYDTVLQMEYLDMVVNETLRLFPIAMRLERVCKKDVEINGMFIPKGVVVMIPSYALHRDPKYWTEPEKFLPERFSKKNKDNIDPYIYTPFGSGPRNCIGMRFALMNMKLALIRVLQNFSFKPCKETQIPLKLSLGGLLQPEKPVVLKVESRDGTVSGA

[9] = target: T1, Heat shock factor protein 1 (Mus musculus, UniProt P38532); assay: inhibition of MG132-induced HSE-luciferase signal, confirmation, cell-based, NIH3T3, luminescence, dose retest (AID 2382); type: functional;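 note: NIH3T3 fibroblasts with HSF1-driven luciferase reporter stressed by proteasome inhibitor MG132; luminescence from HSF1-driven luciferase expression after 8 hours of MG132 stress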
T1 sequence (P38532 whole entry): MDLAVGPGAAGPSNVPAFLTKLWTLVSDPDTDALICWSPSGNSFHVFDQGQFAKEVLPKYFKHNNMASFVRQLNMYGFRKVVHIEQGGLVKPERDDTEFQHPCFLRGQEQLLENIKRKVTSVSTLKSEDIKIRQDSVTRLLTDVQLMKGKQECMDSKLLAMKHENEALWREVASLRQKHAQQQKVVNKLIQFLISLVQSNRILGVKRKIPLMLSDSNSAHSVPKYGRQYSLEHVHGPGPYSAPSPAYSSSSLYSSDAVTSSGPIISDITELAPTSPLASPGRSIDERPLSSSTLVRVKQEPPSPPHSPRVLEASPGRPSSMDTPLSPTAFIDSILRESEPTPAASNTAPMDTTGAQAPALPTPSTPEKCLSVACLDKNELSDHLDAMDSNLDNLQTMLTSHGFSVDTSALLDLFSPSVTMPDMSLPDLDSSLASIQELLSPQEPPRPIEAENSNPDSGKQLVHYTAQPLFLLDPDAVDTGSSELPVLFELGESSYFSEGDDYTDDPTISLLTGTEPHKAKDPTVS

[10] = tested on: INS1; assay: beta cell apoptosis inhibitors, cytokine rescue, dose response, luminescence, retest (AID 449756); type: functional, cell-based; details: Rattus norvegicus;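 note: cell death triggered by IL-1 beta plus TNF-alpha plus IFN-gamma mixture; protective hits raise ATP signal compared with cytokine alone wells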
[11] = tested on: Streptococcus; assay: Group A Streptococcus viability loss, dose response, counter-screen for streptokinase expression inhibitor project, luminescence, BacTiterGlo (AID 1915); type: functional, organism-based;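 note: potency for reduction of bacterial viability or growth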
[12] = tested on: Streptococcus sp. 'group A'; assay: growth inhibition of control SK(-) GAS strain, dose response, counter-screen for streptokinase expression inhibitor project, luminescence, kanamycin, BacTiterGlo, confirmation (AID 1900); type: functional, organism-based

O=C(CCNC(=O)c1ccccc1Cl)Nc1nc(-c2ccc3ccccc3c2)cs1
EC50 [1]: 2.02 µM (active) | EC50 [2]: > 60 µM (not active)

CCCn1c2c(c(O)c(C(=O)NCc3ccccc3)c1=O)CCCC2
AC50 [3]: 20 µM (inconclusive)

N#Cc1c(N2CCOCC2)nc(-c2ccco2)c2c1CCCC2
EC50 [4]: > 120 µM (not active) | EC50 [5]: 18.5 µM (active) | EC50 [6]: 21.5 µM (active)

CCOC(=O)Cc1csc(NC(=O)c2c(O)c3ccccc3n(CC(C)C)c2=O)n1
EC50 [4]: 11.1 µM (active) | EC50 [5]: > 120 µM (not active) | EC50 [6]: > 120 µM (not active)

COc1cccc(-c2cc(NCCc3c[nH]c4ccc(OC)cc34)ncn2)c1
AC50 [3]: 1.58 µM (inconclusive)

CCOc1ccc(-n2nc3ccc(NC(=O)c4ccc5c(c4)OCCO5)cc3n2)cc1
EC50 [4]: 12.7 µM (active) | EC50 [5]: 72.6 µM (active) | EC50 [6]: > 120 µM (not active)

Cc1cccc(Nc2c([N+](=O)[O-])cc(C(=O)N3CC(=O)Nc4ccccc43)cc2[N+](=O)[O-])c1
EC50 [1]: 0.518 µM (active) | EC50 [2]: > 60 µM (not active)

Cn1c(-c2ccsc2)c(-c2cccs2)c2cc(Br)ccc21
AC50 [7]: 3.15 µM (active)

CCC(C)(C)n1nnnc1C(c1cc2ccc(OC)cc2nc1O)N1CCc2ccccc2C1 (stereo not drawn)
EC50 [1]: 1.91 µM (active) | EC50 [2]: 4.98 µM (active)

CN(C)Cc1ccccc1-c1ccc2ncnc(N(C)Cc3ccco3)c2c1
AC50 [8]: 15.8 µM (inconclusive)

Cc1ccc(S(=O)(=O)N2CCC(C(=O)N[C@@H](Cc3ccccc3)C(=O)O)CC2)cc1
EC50 [9]: > 195 µM (not active)

CC/C(NNc1ccccc1)=C1/C(=O)NC(=O)N(c2ccc(OC)cc2)C1=O
AC50 [7]: 0.769 µM (active)

CCCCn1c(C2CCCCC2)nc2cc3nc(O)c(C(C)C)nc3cc21
AC50 [7]: 1.23 µM (active)

COc1ccc(N(CC(=O)NC2CCCCCCC2)S(=O)(=O)c2c(C)nn(C)c2C)cc1
EC50 [9]: > 195 µM (not active)

CC(C)c1nc(N2CCOCC2)c(C#N)c2c1COC(C)(C)C2
EC50 [4]: > 120 µM (not active) | EC50 [5]: > 120 µM (not active) | EC50 [6]: 33.6 µM (active)

Cc1ccc(-n2nc(C)c3c(C)c(CCC(=O)NCC4CCCO4)c(=O)n(C)c32)cc1 (stereo not drawn)
EC50 [1]: 5.19 µM (active) | EC50 [2]: > 60 µM (not active)

Cc1ccc(C)c(NC(=O)c2ccccc2NS(=O)(=O)c2cc([N+](=O)[O-])ccc2C)c1
AC50 [7]: 1.19 µM (active) | AC50 [10]: 3.76 µM (active)

O=C(NCCS(=O)(=O)N1CCN(c2ccc(F)cc2)CC1)c1ccc(Br)o1
EC50 [4]: > 120 µM (not active) | EC50 [5]: > 120 µM (not active) | EC50 [6]: > 120 µM (not active)

O=C(C1=C[C@H](c2ccc(C(F)(F)F)cc2)C[C@H](OCCCCO)O1)N1CCN(Cc2ccc3c(c2)OCO3)CC1
EC50 [9]: > 195 µM (not active)

CN(Cc1ccccc1)CC(O)COc1ccc(CNCCc2ccncc2)cc1 (stereo not drawn)
EC50 [1]: 0.9 µM (active) | EC50 [2]: > 60 µM (not active)

Nc1nnc(SCCOc2cccc(Br)c2)s1
AC50 [3]: 15.8 µM (inconclusive)

O=C(c1nn2c(C(F)(F)F)cc(-c3ccco3)nc2c1Br)N1CCCc2ccccc21
EC50 [4]: 10.2 µM (active) | EC50 [5]: 13.8 µM (active) | EC50 [6]: 8.31 µM (active)

O=C(Nc1cccnc1Cl)c1cc([N+](=O)[O-])ccc1Cl
EC50 [1]: > 60 µM (not active) | EC50 [2]: > 60 µM (not active)

COc1cc(CNCCN2CCOCC2)ccc1OCc1ccccc1Cl
AC50 [3]: 7.94 µM (inconclusive)

COc1ccc2nc(NC(=O)c3cccc(-c4cc5ccccc5oc4=O)c3)sc2c1
AC50 [7]: 6.73 µM (active)

COCCCN=C(S)NN=C(S)Nc1cccc(Cl)c1
EC50 [11]: > 150 µM (not active) | EC50 [12]: > 150 µM (not active)

CCn1c(C)c(C)c2cc(C(=O)N3CCN(c4cccc(C)c4C)CC3)ccc21
AC50 [7]: 4.18 µM (active)

Clc1ccccc1N1CCN(Cc2c[nH]c3ccccc23)CC1
EC50 [1]: 1.43 µM (active) | EC50 [2]: > 60 µM (not active)

COc1ccc([C@@H]2[C@@H]3C(=O)N(C(C)(C)C)C(=O)[C@@H]3[C@]3(C)C(=O)N(c4cccc(F)c4)C(=O)N23)cc1
EC50 [4]: > 120 µM (not active) | EC50 [5]: > 120 µM (not active) | EC50 [6]: > 120 µM (not active)

CCOc1ccc(-c2cc(CCCC(=O)N3CCN(c4ccc(OC)cc4)CC3)no2)cc1
EC50 [4]: 28.1 µM (active) | EC50 [5]: > 120 µM (not active) | EC50 [6]: > 120 µM (not active)

c1ccc(Cn2c[n+](Cc3ccccc3)cn2)cc1
EC50 [9]: > 195 µM (not active)

O=C(CSc1nc2ccccc2n1S(=O)(=O)c1ccccc1)N1CCCCC1
EC50 [9]: > 195 µM (not active)

Cc1cc(C)c2nc(C(F)(F)F)c(C#N)c(N)c2c1
EC50 [9]: 3.15 µM (active)

Cc1ccc(Cl)cc1N=C(S)N(Cc1cccnc1)Cc1ccccc1Cl
EC50 [1]: 0.554 µM (active) | EC50 [2]: > 60 µM (not active)

CS(=O)(=O)n1nc(-c2cccnc2)nc1NCc1ccccc1
EC50 [4]: > 120 µM (not active) | EC50 [5]: > 120 µM (not active) | EC50 [6]: > 120 µM (not active)

CN1CCN(NC(=O)c2ccc(S(=O)(=O)N3CCCCCC3)cc2)CC1
EC50 [1]: 0.247 µM (active) | EC50 [2]: > 60 µM (not active)

CC(=O)NC(=S)Nc1cccc(S(=O)(=O)NC2=NCCC2)c1
EC50 [9]: > 195 µM (not active)

COc1ccc(OC)c(NC(=O)CSc2nnc(-c3cccnc3)s2)c1
AC50 [10]: 3.66 µM (active)

CCOCC(=O)Nc1cc(C(=O)Nc2cccc(C)c2C)ccc1Cl
AC50 [8]: 25.1 µM (inconclusive)

CC/C(NNc1ccccc1)=C1/C(=O)NC(=O)N(c2ccccc2)C1=O
AC50 [7]: 0.828 µM (active)

Cc1cc(C)n(-c2ccc(NC(=O)C3CCCCN3C(=O)c3ccoc3C)cc2)n1 (stereo not drawn)
EC50 [9]: > 195 µM (not active)

Cc1noc(C)c1C(=O)N1CCC(C(=O)c2ccccc2)CC1
EC50 [9]: > 195 µM (not active)

O=C1C2CCCN2C(c2ccc(F)cc2)N1c1nccs1 (stereo not drawn)
AC50 [8]: 22.4 µM (inconclusive) | AC50 [3]: 35.5 µM (inconclusive)

Cn1c(NCc2cccnc2)nc2c1c(=O)n(Cc1ccccc1F)c(=O)n2C
EC50 [4]: > 120 µM (not active) | EC50 [5]: > 120 µM (not active) | EC50 [6]: 18.5 µM (active)

O=C(CC12CC3CC(CC(C3)C1)C2)NC(=S)Nc1ccc(CN2CCOCC2)cc1
EC50 [1]: 1.51 µM (active) | EC50 [2]: 9.26 µM (active)

O=C(c1ccccc1)c1cc(F)c(N2CCOCC2)cc1Cl
AC50 [8]: 17.8 µM (inconclusive)

O=C(N1CCCCC1)N1CCN(S(=O)(=O)c2ccccc2)CC1
EC50 [9]: 32.8 µM (active)

Cc1ccc(NCc2ccc(C)s2)cc1
EC50 [1]: 2.13 µM (active) | EC50 [2]: > 60 µM (not active)

C=C(C)COc1ccc2c(c1)CCC1C2CC[C@]2(C)C(=O)/C(=N/O)CC12 (stereo partly drawn)
AC50 [3]: 3.16 µM (inconclusive)

COC(=O)N/N=C/c1ccc(/C=N/NC(=O)OC)cc1
EC50 [9]: > 195 µM (not active)

C/C(=N/Cc1cccc(Cl)c1)c1nc(-c2ccco2)oc1O
AC50 [7]: 1.08 µM (active)

CC(=O)c1cccc(/N=c2\scc(-c3ccc(S(=O)(=O)N4CCOCC4)cc3)n2CCO)c1
AC50 [10]: 2.5 µM (active)

CC(C)C(NC(=O)C12CC3CC(CC(C3)C1)C2)C(=O)N/N=C/C1=C(N2CCOCC2)C(=C\c2cccc([N+](=O)[O-])c2)/CC1 (stereo not drawn)
EC50 [1]: 2.16 µM (active) | EC50 [2]: > 60 µM (not active)

COc1cccc2s/c(=N/C(=O)CS(=O)(=O)c3ccc(F)cc3)n(C)c12
EC50 [1]: 1.2 µM (active) | EC50 [2]: > 60 µM (not active)

CCCCN(C)CCNC(=O)c1cc2c(-c3ccccc3F)nn(C)c2s1
EC50 [9]: > 195 µM (not active) | AC50 [10]: > 260 µM (inactive)

Cn1ccnc1C1CCCCN1C(=O)c1cc(COc2ccc(F)cc2Cl)on1 (stereo not drawn)
EC50 [9]: > 195 µM (not active)
